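Five compound concentrations were applied to cells in 96-well plates for 48 hours; endpoints were derived by simple linear interpolation of the resulting dose-response curve. TGI: total growth inhibition.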
Legend:
Test in all cases: NCI anticancer screen, dose series, 48 h
DLD-1 colon = system: DLD-1 colon
KM12 colon = system: KM12 colon
HCT-15 colon = system: HCT-15 colon
SF-539 CNS = system: SF-539 CNS
HT29 colon = system: HT29 colon
CAKI-1 renal = system: CAKI-1 renal
U251 CNS = system: U251 CNS
OVCAR-3 ovarian = system: OVCAR-3 ovarian
LXFL 529 NSCLC = system: LXFL 529 NSCLC
SK-OV-3 ovarian = system: SK-OV-3 ovarian
MOLT-4 leukemia = system: MOLT-4 leukemia
SNB-75 CNS = system: SNB-75 CNS
SF-268 CNS = system: SF-268 CNS
IGROV1 ovarian = system: IGROV1 ovarian
TK-10 renal = system: TK-10 renal
UACC-62 melanoma = system: UACC-62 melanoma
RXF 393 renal = system: RXF 393 renal
OVCAR-5 ovarian = system: OVCAR-5 ovarian
OVCAR-8 ovarian = system: OVCAR-8 ovarian
KM20L2 colon = system: KM20L2 colon
HL-60(TB) leukemia = system: HL-60(TB) leukemia
HOP-18 NSCLC = system: HOP-18 NSCLC
SNB-78 CNS = system: SNB-78 CNS
OVCAR-4 ovarian = system: OVCAR-4 ovarian
NCI-H460 lung = system: NCI-H460 lung
HOP-92 NSCLC = system: HOP-92 NSCLC
MALME-3M melanoma = system: MALME-3M melanoma
SR leukemia = system: SR leukemia
UACC-257 melanoma = system: UACC-257 melanoma
XF 498 CNS = system: XF 498 CNS
EKVX NSCLC = system: EKVX NSCLC
SK-MEL-2 melanoma = system: SK-MEL-2 melanoma
A549 NSCLC = system: A549 NSCLC
SF-295 CNS = system: SF-295 CNS
NCI-H522 lung = system: NCI-H522 lung
ACHN renal = system: ACHN renal
SNB-19 CNS = system: SNB-19 CNS
LOX IMVI melanoma = system: LOX IMVI melanoma
UO-31 renal = system: UO-31 renal
CCRF-CEM leukemia = system: CCRF-CEM leukemia
DMS 273 small cell lung = system: DMS 273 small cell lung
DMS 114 small cell lung = system: DMS 114 small cell lung
M14 melanoma = system: M14 melanoma
SK-MEL-5 melanoma = system: SK-MEL-5 melanoma
NCI-H226 lung = system: NCI-H226 lung
HCC-2998 colon = system: HCC-2998 colon
HCT-116 colon = system: HCT-116 colon
SW-620 colon = system: SW-620 colon
SK-MEL-28 melanoma = system: SK-MEL-28 melanoma
HOP-62 NSCLC = system: HOP-62 NSCLC

Work on `NC(CO)c1ccccc1` (stereo not given) yielded a TGI (DLD-1 colon) of over 100 µM, a TGI (KM12 colon) of over 100 µM and a TGI (HCT-15 colon) of over 100 µM. The TGI (SF-539 CNS) was over 100 µM, the TGI (HT29 colon) was over 100 µM and the TGI (CAKI-1 renal) was over 100 µM. For the same molecule, the TGI (U251 CNS) was over 100 µM, the TGI (OVCAR-3 ovarian) was over 100 µM and the TGI (LXFL 529 NSCLC) was over 100 µM. The TGI (SK-OV-3 ovarian) was over 100 µM, the TGI (MOLT-4 leukemia) was over 100 µM and the TGI (SNB-75 CNS) was over 100 µM. For the same molecule, the TGI (SF-268 CNS) was over 100 µM, the TGI (IGROV1 ovarian) was over 100 µM and the TGI (TK-10 renal) was over 100 µM. It also gave a TGI (UACC-62 melanoma) of over 100 µM, a TGI (RXF 393 renal) of over 100 µM and a TGI (OVCAR-5 ovarian) of over 100 µM. For the same molecule, the TGI (OVCAR-8 ovarian) was over 100 µM, the TGI (KM20L2 colon) was over 100 µM and the TGI (HL-60(TB) leukemia) was over 100 µM. The TGI (HOP-18 NSCLC) was 96.1 µM, the TGI (SNB-78 CNS) was over 100 µM and the TGI (OVCAR-4 ovarian) was over 100 µM. For the same molecule, the TGI (NCI-H460 lung) was over 100 µM, the TGI (HOP-92 NSCLC) was over 100 µM and the TGI (MALME-3M melanoma) was over 100 µM. It also gave a TGI (SR leukemia) of over 100 µM, a TGI (UACC-257 melanoma) of over 100 µM and a TGI (XF 498 CNS) of over 100 µM. The TGI (EKVX NSCLC) was over 100 µM, the TGI (SK-MEL-2 melanoma) was over 100 µM and the TGI (A549 NSCLC) was over 100 µM. It also gave a TGI (SF-295 CNS) of over 100 µM, a TGI (NCI-H522 lung) of over 100 µM and a TGI (ACHN renal) of over 100 µM. The TGI (SNB-19 CNS) was over 100 µM, the TGI (LOX IMVI melanoma) was over 100 µM and the TGI (UO-31 renal) was over 100 µM. For the same molecule, the TGI (CCRF-CEM leukemia) was over 100 µM, the TGI (DMS 273 small cell lung) was over 100 µM and the TGI (DMS 114 small cell lung) was over 100 µM. The TGI (M14 melanoma) was over 100 µM, the TGI (SK-MEL-5 melanoma) was over 100 µM and the TGI (NCI-H226 lung) was over 100 µM. For the same molecule, the TGI (HCC-2998 colon) was over 100 µM, the TGI (HCT-116 colon) was over 100 µM and the TGI (SW-620 colon) was over 100 µM. For the same molecule, the TGI (SK-MEL-28 melanoma) was over 100 µM and the TGI (HOP-62 NSCLC) was over 100 µM.

Source: PubChem BioAssay (NCI)
